Experimental findings from PMC3784021 (Analytical biochemistry, 2013) are described below.

In the experiment the target is T1, AMSH (Associated Molecule with the SH3 domain of STAM) (Homo sapiens, UniProt O95630).
T1 sequence (O95630 219-424): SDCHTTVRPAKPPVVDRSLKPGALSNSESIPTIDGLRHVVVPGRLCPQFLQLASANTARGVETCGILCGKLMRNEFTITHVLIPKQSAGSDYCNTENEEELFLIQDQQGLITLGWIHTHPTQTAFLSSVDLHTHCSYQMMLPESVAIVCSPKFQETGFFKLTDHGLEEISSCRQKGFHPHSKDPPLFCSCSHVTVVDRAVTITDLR
Description: FRET deubiquitinase assay with Lys63-linked diubiquitin probe. It counts as biochemical.

`CCN1C(=O)C=CC1=O` [NEM, N-ethylmaleimide] registered an IC50 of 16.2 ± 3.1 µM.
